The record followed here is US20040037837A1 (priority 2000, published 2004).

In experiment [1] the test system is Uncultured PBMCs from HLA-A2 donors. The experiment is classed as cell-based, human.
Experiment [2] deals with THP-1 cells pulsed with peptide. In words: 51Cr release cytotoxicity assay of peptide specific CD8+ T cells against peptide pulsed THP-1 cells. To be noted: 50:1 E:T ratio; label = peptide pulsed on targets; STCL after 2 weeks of stimulation. It is filed as cell-based, human.
Experiment [3] deals with autologous monocyte-derived macrophages infected with M. bovis BCG, M. tuberculosis or rVV expressing Ag85A. The experiment is classed as cell-based, human. To be noted: label = peptide used to generate the STCL (or pulsed control peptide).
Experiment [4] concerns HLA-A2 transgenic C57B1/6 mice. It is filed as in vivo. To be noted: subcutaneous peptides in IFA.

As for “GLPVEYLQV (listed as Mycobacterium tuberculosis) [P48-56]”, the “mean number of IFN-γ sfc's enumerated from 5×10^5 PBMCs” value in experiment [1] was determined as 27. For the same sequence, in experiment [2], the “specific lysis of peptide pulsed THP-1 cells by P48-56 stimulated CD8^+ T cells” value came to 76% and the “specific lysis of peptide pulsed THP-1 cells by P242-250 reactive CD8^+ T cells” value was “no significant lysis”. For the same sequence, the “recognition and lysis of M. bovis BCG, M. tuberculosis and rVV85A infected macrophages by peptide specific CTLs” value in experiment [3] was “able to recognise and lyse”. Also, the “peptide specific IFNγ producing T cells in the spleens” value in experiment [4] (7 days post second boost) is “resulted in a P48-56 response”.

Regarding “KLIANNTRV (listed as Mycobacterium tuberculosis) [P242-250]”, in experiment [1], the “mean number of IFN-γ sfc's enumerated from 5×10^5 PBMCs” value is listed as 22. Also, the “specific lysis of peptide pulsed THP-1 cells by P242-250 reactive CD8^+ T cells” value in experiment [2] was 79%. Also, in experiment [3], the “recognition and lysis of M. bovis BCG, M. tuberculosis and rVV85A infected macrophages by peptide specific CTLs” value is “able to recognise and lyse”. Also, in experiment [4] (7 days post first boost, lymph node), the “recognition of peptide with feeder cells from wild type C57B1/6 mice” value is on record as “not recognised”. The “IFNγ response to peptide in the lymph node” value in experiment [4] (7 days post first boost, autologous feeders) is given as “a response to P242-250 was seen”.
